System: Influenza virus
Format: in vivo
Conditions: Example 4, FIG. 3; BALB-c mice, subcutaneous, day 0 and day 21; various time points; 2 μg antigen, freeze-dried and stored at 45° C.

CN(C)CC(=O)O [dimethylglycine, Dimethylglycine]
HIA titre (effect with different excipients): antigen sparing effect and acceleration of onset of immunity observed with polyethyleneimine are also observed

Source: patent US10806783B2, “Vaccine compositions” (priority 2014, dated 2020)
